From patent US8871756B2 (Hoffmann-La Roche Inc., priority 2011, dated 2014)

These compounds were tested on RSV Long strain (assay: Viral cytopathic effect (CPE) assay, anti-RSV activity). Conditions: human respiratory syncytial virus, 144 h, RSV Long strain (ATCC); cell viability after 6 days, Cell Counting kit-8.
Type: cell-based, Respiratory Syncytial Virus
In short: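 EC50 was derived from CCK-8 viability at 450/630 nm measured 6 days post-infection. Infection used enough RSV Long strain for approximately 80–90% cytopathic effect, in the presence of half-log serially diluted compound. Cells were plated the day before at 6×10^3 per well in DMEM/10% FBS.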
`Cc1ccc2nc(N3CCC(F)(F)c4ccccc4C3)cc(NCCO)c2c1` [Example 111-5, 2-{[2-(5,5-Difluoro-1,3,4,5-tetrahydro-2H-2-benzazepin-2-yl)-6-methylquinolin-4-yl]amino}ethanol] showed an EC50 of 1.64 µM. Compound `Cc1ccc2nc(N3CCS(=O)(=O)c4ccccc4C3)cc(N[C@@H]3CCC[C@H]3N)c2c1` (relative stereo) [Example 15-5, trans-N-[2-(1,1-Dioxido-2,3-dihydro-1,4-benzothiazepin-4(5H)-yl)-6-methylquinolin-4-yl]cyclopentane-1,2-diamine] has an EC50 of 0.74 µM. Work on `Cc1ccc2nc(N3CCS(=O)(=O)c4ccccc4C3)cc(N(CCO)CCO)c2c1` [Example 11-2, 2,2′-{[2-(1,1-Dioxido-2,3-dihydro-1,4-benzothiazepin-4(5H)-yl)-6-methylquinolin-4-yl]imino}diethanol] yielded an EC50 of 7.02 µM. In the case of `Cc1ccc2nc(N3CCC(F)(F)c4ccccc4C3)cc(N(C)CCN)c2c1` [Example 111-3, N-[2-(5,5-Difluoro-1,3,4,5-tetrahydro-2H-2-benzazepin-2-yl)-6-methylquinolin-4-yl]-N-methylethane-1,2-diamine], the EC50 is reported as 0.0768 µM. Compound `NCCNc1cc(N2CCCc3ccccc3C2)nc2ccccc12` [Example 118-9, N-[2-(1,3,4,5-Tetrahydro-2H-2-benzazepin-2-yl)quinolin-4-yl]ethane-1,2-diamine] has an EC50 of 0.202 µM. Work on `NCC(F)(F)CNc1cc(N2CC[S+]([O-])c3ccccc3C2)nc2ccc(Cl)cc12` (stereo not shown) [Example 18-6, N-[6-Chloro-2-(1-oxido-2,3-dihydro-1,4-benzothiazepin-4(5H)-yl)quinolin-4-yl]-2,2-difluoropropane-1,3-diamine] yielded an EC50 of 0.061 µM. With `O=S1(=O)CCN(c2cc(NC3CNC3)c3cc(Cl)ccc3n2)Cc2ccccc21` [Example 22, N-(Azetidin-3-yl)-6-chloro-2-(1,1-dioxido-2,3-dihydro-1,4-benzothiazepin-4(5H)-yl)quinolin-4-amine] the EC50 was 0.036 µM. In the case of `Cc1ccc2nc(N3CCS(=O)(=O)c4ccccc4C3)cc(NCC3CN=C(N)O3)c2c1` (stereo not shown) [Example 38-1, N-[(2-Amino-4,5-dihydro-1,3-oxazol-5-yl)methyl]-2-(1,1-dioxido-2,3-dihydro-1,4-benzothiazepin-4(5H)-yl)-6-methylquinolin-4-amine], the EC50 is reported as 0.01 µM. Compound `Cc1ccc2nc(N3CCS(=O)(=O)c4ccccc4C3)cc(NCC3CCN3)c2c1` (stereo not shown) [Example 21-3, N-(Azetidin-2-ylmethyl)-2-(1,1-dioxido-2,3-dihydro-1,4-benzothiazepin-4(5H)-yl)-6-methylquinolin-4-amine] has an EC50 of 0.015 µM. In the case of `NCCCNc1cc(N2CCS(=O)(=O)c3ccccc3C2)nc2ccc(OC(F)F)cc12` [Example 17-3, N-[6-(Difluoromethoxy)-2-(1,1-dioxido-2,3-dihydro-1,4-benzothiazepin-4(5H)-yl)quinolin-4-yl]propane-1,3-diamine], the EC50 is reported as 2.17 µM. Compound `NCCNc1cc(N2CCS(=O)(=O)c3ccccc3C2)nc2ccccc12` [Example 9-15, N-[2-(1,1-Dioxido-2,3-dihydro-1,4-benzothiazepin-4(5H)-yl)quinolin-4-yl]ethane-1,2-diamine] has an EC50 of 0.012 µM. With `Cc1ccc2nc(N3CCC(F)(F)c4ccccc4C3)cc(N(CCO)CCO)c2c1` [Example 110-11, 2,2′-{[2-(5,5-Difluoro-1,3,4,5-tetrahydro-2H-2-benzazepin-2-yl)-6-methylquinolin-4-yl]imino}diethanol] the EC50 was 6.75 µM. In the case of `NCCCNc1cc(N2CCS(=O)(=O)c3ccccc3C2)nc2ccc(Oc3ccccn3)cc12` [Example 31, N-[2-(1,1-Dioxido-2,3-dihydro-1,4-benzothiazepin-4(5H)-yl)-6-(pyridin-2-yloxy)quinolin-4-yl]propane-1,3-diamine], the EC50 is reported as 0.702 µM. Work on `Cc1ccc2nc(N3CCS(=O)(=O)c4ccccc4C3)cc(NC(=O)c3cccnn3)c2c1` [Example 3-58, N-[2-(1,1-Dioxido-2,3-dihydro-1,4-benzothiazepin-4(5H)-yl)-6-methylquinolin-4-yl]pyridazine-3-carboxamide] yielded an EC50 of 0.184 µM. Work on `Cc1ccc2nc(N3CCS(=O)(=O)c4ccccc4C3)cc(NC[C@H](C)N)c2c1` [Example 5-8, (2S)—N˜1˜-[2-(1,1-Dioxido-2,3-dihydro-1,4-benzothiazepin-4(5H)-yl)-6-methylquinolin-4-yl]propane-1,2-diamine] yielded an EC50 of 0.022 µM. `Cc1ccc2nc(N3CCS(=O)(=O)c4ccccc4C3)cc(N3C[C@@H]4[C@@H](N)[C@@H]4C3)c2c1` [Example 19-2, (1R,5S,6S)-3-[2-(1,1-Dioxido-2,3-dihydro-1,4-benzothiazepin-4(5H)-yl)-6-methylquinolin-4-yl]-3-azabicyclo[3.1.0]hexan-6-amine] gave an EC50 of 0.011 µM. `Cc1cccc2c(NCCCN)cc(N3CCS(=O)(=O)c4ccccc4C3)nc12` [Example 17-5, N-[2-(1,1-Dioxido-2,3-dihydro-1,4-benzothiazepin-4(5H)-yl)-8-methylquinolin-4-yl]propane-1,3-diamine] gave an EC50 of 1.5 µM. `Cc1ccc2nc(N3CCS(=O)(=O)c4ccccc4C3)cc(NCCOCCN)c2c1` [Example 5-2, N-[2-(2-Aminoethoxy)ethyl]-2-(1,1-dioxido-2,3-dihydro-1,4-benzothiazepin-4(5H)-yl)-6-methylquinolin-4-amine] gave an EC50 of 0.211 µM. `Cc1ccc2nc(N3CCS(=O)(=O)c4ccccc4C3)cc(NC3CCN(C4COC4)C3)c2c1` (stereo not shown) [Example 44-1, 2-(1,1-Dioxido-2,3-dihydro-1,4-benzothiazepin-4(5H)-yl)-6-methyl-N-[1-(oxetan-3-yl)pyrrolidin-3-yl]quinolin-4-amine] was tested, and the EC50 was 0.084 µM. Work on `Cc1ccc2nc(N3CCS(=O)(=O)c4ccccc4C3)cc(N3C(=O)NCC34COC4)c2c1` [Example 86, 5-[2-(1,1-Dioxido-2,3-dihydro-1,4-benzothiazepin-4(5H)-yl)-6-methylquinolin-4-yl]-2-oxa-5,7-diazaspiro[3.4]octan-6-one] yielded an EC50 of 2.22 µM. `CNCCNc1cc(N2CCS(=O)(=O)c3ccccc3C2)nc2ccc(Cl)cc12` [Example 9-32, N-[6-Chloro-2-(1,1-dioxido-2,3-dihydro-1,4-benzothiazepin-4(5H)-yl)quinolin-4-yl]-N′-methylethane-1,2-diamine] gave an EC50 of 0.063 µM. `NCCNc1cc(N2CCCc3ccccc3C2)nc2ccc(Oc3ccccn3)cc12` [Example 122, N-[6-(Pyridin-2-yloxy)-2-(1,3,4,5-tetrahydro-2H-2-benzazepin-2-yl)quinolin-4-yl]ethane-1,2-diamine] gave an EC50 of 3.12 µM. For `[2H]C([2H])([2H])c1ccc2nc(N3CC[S+]([O-])c4ccccc4C3)nc(NCC3(CN)COC3)c2c1` (stereo not shown) [Example 107, N-{[3-(Aminomethyl)oxetan-3-yl]methyl}-6-trideuteriomethyl-2-(1-oxido-2,3-dihydro-1,4-benzothiazepin-4(5H)-yl)quinazolin-4-amine], the EC50 was 0.001 µM. `Clc1ccc2nc(N3CCCc4ccccc4C3)ccc2c1` [Example 130-1, 2-(6-Chloroquinolin-2-yl)-2,3,4,5-tetrahydro-1H-2-benzazepine] was tested, and the EC50 was 6.84 µM. `Cc1ccc2nc(N3CCS(=O)(=O)c4ccccc4C3)cc(NC(C)CC(N)=O)c2c1` (stereo not shown) [Example 36-2, 3-{[2-(1,1-Dioxido-2,3-dihydro-1,4-benzothiazepin-4(5H)-yl)-6-methylquinolin-4-yl]amino}butanamide] gave an EC50 of 1.47 µM. With `Cc1ccc2nc(N3CCS(=O)(=O)c4ccccc4C3)cc(NCC3(N)CCOC3)c2c1` (stereo not shown) [Example 2-1, N-[(3-Aminotetrahydrofuran-3-yl)methyl]-2-(1,1-dioxido-2,3-dihydro-1,4-benzothiazepin-4(5H)-yl)-6-methylquinolin-4-amine] the EC50 was 0.024 µM. `CN(C)C(=O)c1ccc2c(c1)CCCN(c1cc(NCCN)c3cc(Cl)ccc3n1)C2` [Example 123, 2-{4-[(2-Aminoethyl)amino]-6-chloroquinolin-2-yl}-N,N-dimethyl-2,3,4,5-tetrahydro-1H-2-benzazepine-7-carboxamide] showed an EC50 of 3.14 µM. `NC1(CNc2nc(N3CC[S+]([O-])c4ccccc4C3)nc3ccc(Cl)cc23)COC1` (stereo not shown) [Example 57-5, N-[(3-Aminooxetan-3-yl)methyl]-6-chloro-2-(1-oxido-2,3-dihydro-1,4-benzothiazepin-4(5H)-yl)quinazolin-4-amine] showed an EC50 of 0.027 µM. `Cc1ccc2nc(N3CC[S+]([O-])c4ccccc4C3)nc(NC3(CN)COC3)c2c1` (stereo not shown) [Example 91, N-[3-(Aminomethyl)oxetan-3-yl]-6-methyl-2-(1-oxido-2,3-dihydro-1,4-benzothiazepin-4(5H)-yl)quinazolin-4-amine] gave an EC50 of 0.004 µM. In the case of `Cc1ccc2nc(N3CCS(=O)(=O)c4ccccc4C3)cc(NC(CN)(CO)CO)c2c1` [Example 72, 2-(Aminomethyl)-2-{[2-(1,1-dioxido-2,3-dihydro-1,4-benzothiazepin-4(5H)-yl)-6-methylquinolin-4-yl]amino}propane-1,3-diol], the EC50 is reported as 0.002 µM. `Cc1ccc2nc(N3CCS(=O)(=O)c4ccccc4C3)cc(NCCN3CCOCC3)c2c1` [Example 12-1, 2-(1,1-Dioxido-2,3-dihydro-1,4-benzothiazepin-4(5H)-yl)-6-methyl-N-[2-(morpholin-4-yl)ethyl]quinolin-4-amine] gave an EC50 of 0.536 µM. `Cc1ccc2nc(N3CCS(=O)(=O)c4ccc(N5CCOCC5)cc4C3)cc(NCC3(N)COC3)c2c1` [Example 33-1, N-[(3-Aminooxetan-3-yl)methyl]-2-(7-morpholin-4-yl-1,1-dioxido-2,3-dihydro-1,4-benzothiazepin-4(5H)-yl)-6-methylquinolin-4-amine] was tested, and the EC50 was 0.044 µM. With `Cc1ccc2nc(N3CCS(=O)(=O)c4ccccc4C3)cc(N[C@H]3CNC[C@H]3O)c2c1` (relative stereo) [Example 28-4, cis-4-{[2-(1,1-Dioxido-2,3-dihydro-1,4-benzothiazepin-4(5H)-yl)-6-methylquinolin-4-yl]amino}pyrrolidin-3-ol] the EC50 was 0.001 µM. `NCC(F)(F)CNc1cc(N2CCS(=O)(=O)c3ccccc3C2)nc2ccc(Cl)cc12` [Example 3-20, N-[6-Chloro-2-(1,1-dioxido-2,3-dihydro-1,4-benzothiazepin-4(5H)-yl)quinolin-4-yl]-2,2-difluoropropane-1,3-diamine] was tested, and the EC50 was 0.507 µM.
